# Test results: patent publication US20180133203A1, “METHODS OF TREATING LIVER DISEASE” (Gilead Sciences, Inc., priority 2016, published 2018)
# Experiments:
# CDHFD/NaNO2 rats = assay: Liver hydroxyproline content in CDHFD/NaNO2 rat model of NASH; type: in vivo, male Wistar rats; conditions: vs vehicle-treated CDHFD/NaNO2 rats; Formula (I) 0.2% in diet, Formula (III) 30 mg/kg/day, week 4 to 14
# Protocol: The following study was conducted to evaluate the efficacy of the combination of an ASK1 inhibitor and an FXR agonist in a rodent model of non-alcoholic steatohepatitis (NASH), relative to the efficacy of the individual agents alone in the model. NASH was induced in male Wistar rats by administration of a choline-deficient high fat diet (CDHFD) combined with the chronic administration of sodium nitrite (CDHFD/NaNO2). The model capitalizes on the “two hit theory” of NASH by inducing both metabolic dysfunction (CDHFD) and oxidative stress (NaNO2) in the liver to result in hepatic fibrosis that is similar in character and severity to that seen in patients with advanced NASH. Rats were fed CDHFD for a total of 14 weeks and were administered NaNO2 from week 4 to 14. […] The following endpoints were assessed at the completion of the 14 week study: i) liver fibrosis measured by liver hydroxyproline (OHP) content and by quantitative morphometric analysis of collagen content by Picosirius red (PSR) staining; ii) myofibroblast activation in liver sections as measured by quantitative IHC of the myofibroblast marker desmin; and, iii) Col1a1 and Timp1 in liver tissue measured by RT-PCR. […] All endpoints were assessed at the completion of the 14 week study protocol. […] The hydroxyproline content was determined photometrically by measuring the absorbance at 560 nm. […]
# FFD mice = assay: Total liver cholesterol content in FFD mouse model of NASH; type: in vivo, male C57BL/6 mice; conditions: Formula (I) 0.15% admixture in diet, Formula (III) 10 mg/kg PO QD, months 7-10
# Protocol: The following study was conducted to evaluate the efficacy of the combination of an ASK1 inhibitor and an FXR agonist in a mouse model of non-alcoholic steatohepatitis (NASH), relative to the efficacy of the individual agents alone in the model. NASH was induced in male C57BL/6 mice by chronic administration of a “fast food” diet (FFD) high in saturated fats, cholesterol and sugars for a total of 10 months, whereas lean control animals were maintained on a normal chow diet. A NASH phenotype was established in FFD mice compared to control mice by 7 months, and was characterized by obesity, hypercholesterolemia, and AST/ALT elevation; and by histological features of NASH such as hepatocellular macrovesicular steatosis and ballooning degeneration. […] Endpoint analyses included morphometric quantification of liver steatosis (% of steatotic area), liver cholesterol content, serum ALT/AST levels, serum bile acid levels, and nanostring evaluation of gene expression. […] After centrifugation, an aliquot of the organic upper layer, containing cholesterol and cholesterol esters, was analyzed. […] The peak area of the m/z 369 [M-H2O]+→161+ product ion of cholesterol was measured against the peak area of the cholesterol-D6 product ion of m/z 375 [M-H2O]+→167+. […]
SMILES,reduction of liver hydroxyproline content (CDHFD/NaNO2 rats),reduction of liver cholesterol content (FFD mice)
O=C(Nc1cccc(-c2nncn2C2CC2)c1)c1cc(-n2cnc(C3CC3)c2)ccn1 [Formula (I)],did not significantly reduce,74%
O=C(O)c1ccnc(N2CC(O)(c3ccc(OCc4c(-c5c(Cl)cccc5Cl)noc4C4CC4)cc3Cl)C2)c1 [Formula (III)],did not significantly reduce,36%
